Legend:
A549-ACE2 [1] = assay: phospholipidosis EC50; higher = less potent phospholipidosis inducer
A549-ACE2 [2] = assay: drug-induced phospholipidosis relative to tamoxifen; higher = more phospholipidosis
[3] = test system: A549-ACE2 infected with SARS-CoV-2; assay: cell count relative to DMSO; higher = less toxic; details: 24 h
[4] = test system: A549-ACE2 infected with SARS-CoV-2; assay: SARS-CoV-2 infection rate relative to DMSO; higher = more infection; details: 24 h
Vero E6 [5] = assay: drug sensitivity score (DSS) for viability; higher = more toxic; extreme values may be limits of the assay; details: 72 h
Caco-2 [6] = assay: as above; details: 72 h
HepG2 [7] = assay: as above; details: 72 h
Calu-3 [8] = assay: as above; details: 72 h
U2OS [9] = assay: as above; details: 72 h
Vero E6 [10] = assay: cell viability relative to DMSO; higher = less toxic; details: 72 h
Caco-2 [11] = assay: as above; details: 72 h
HepG2 [12] = assay: as above; details: 72 h
Calu-3 [13] = assay: as above; details: 72 h
U2OS [14] = assay: as above; details: 72 h
[15] = test system: A549-ACE2 infected with SARS-CoV-2; assay: morphology score (similarity to uninfected cells); higher = more like uninfected cells; details: 24 h
Vero E6 [16] = assay: relative viability EC50 (midpoint between 100% and the lowest measured viability); higher = less toxic; details: 72 h
HepG2 [17] = assay: as above; details: 72 h
Calu-3 [18] = assay: as above; details: 72 h
U2OS [19] = assay: as above; details: 72 h
Caco-2 [20] = assay: as above; details: 72 h

Cc1c(O)cccc1C(=O)N[C@@H](CSc1ccccc1)[C@H](O)CN1C[C@H]2CCCC[C@H]2C[C@H]1C(=O)NC(C)(C)C [nelfinavir]
Details	SARS-CoV-2 infection rate [%]	cell count [%]	cell viability [%]	morphology score	phospholipidosis EC50 [µM]
A549-ACE2 [1], 24 h	–	–	–	–	11.6
Caco-2 [11], 1 nM	–	–	104	–	–
Caco-2 [11], 10 nM	–	–	93.4	–	–
Caco-2 [11], 100 nM	–	–	95.1	–	–
Caco-2 [11], 1000 nM	–	–	70.1	–	–
Caco-2 [11], 10000 nM	–	–	78.7	–	–
Calu-3 [13], 1 nM	–	–	101	–	–
Calu-3 [13], 10 nM	–	–	87.1	–	–
Calu-3 [13], 100 nM	–	–	137	–	–
Calu-3 [13], 1000 nM	–	–	109	–	–
Calu-3 [13], 10000 nM	–	–	86.7	–	–
HepG2 [12], 1 nM	–	–	107	–	–
HepG2 [12], 10 nM	–	–	96.7	–	–
HepG2 [12], 100 nM	–	–	89.5	–	–
HepG2 [12], 1000 nM	–	–	90.2	–	–
HepG2 [12], 10000 nM	–	–	76.4	–	–
U2OS [14], 1 nM	–	–	98.2	–	–
U2OS [14], 10 nM	–	–	92.5	–	–
U2OS [14], 100 nM	–	–	96.8	–	–
U2OS [14], 1000 nM	–	–	93.5	–	–
U2OS [14], 10000 nM	–	–	86.9	–	–
Vero E6 [10], 1 nM	–	–	105	–	–
Vero E6 [10], 10 nM	–	–	99.7	–	–
Vero E6 [10], 100 nM	–	–	88.6	–	–
Vero E6 [10], 1000 nM	–	–	97.3	–	–
Vero E6 [10], 10000 nM	–	–	93.6	–	–
[3], 0.3 µM	–	104	–	–	–
[3], 3 µM	–	96	–	–	–
[3], 10 µM	–	113	–	–	–
[3], 30 µM	–	97	–	–	–
[4], 0.3 µM	95	–	–	–	–
[4], 3 µM	102	–	–	–	–
[4], 10 µM	69	–	–	–	–
[4], 30 µM	10	–	–	–	–
[15], 0.3 µM	–	–	–	0.27	–
[15], 3 µM	–	–	–	0.2	–
[15], 10 µM	–	–	–	0.69	–
[15], 30 µM	–	–	–	0.42	–

drug-induced phospholipidosis [%], A549-ACE2 [2]
Details	0.3 µM	0.833333 µM	3.33333 µM	6.66667 µM	10 µM	30 µM
24 h	1.63	2.14	9.03	22.8	35.3	64.7
48 h	1.06	-2.76	10.6	21.3	40.6	–
72 h	1.29	-2.99	4.63	19.4	37	–

Details	drug sensitivity score	relative viability EC50 [µM]
Caco-2 [6]	5.8	–
Calu-3 [8]	0	–
Calu-3 [18]	–	> 10
HepG2 [7]	1.8	–
HepG2 [17]	–	> 10
U2OS [9]	0	–
U2OS [19]	–	> 10
Vero E6 [5]	0	–
Vero E6 [16]	–	> 10

Cc1cc(Nc2ncc(Cl)c(Nc3ccccc3S(=O)(=O)C(C)C)n2)c(OC(C)C)cc1C1CCNCC1 [ceritinib]
Details	SARS-CoV-2 infection rate [%]	cell count [%]	cell viability [%]	morphology score	phospholipidosis EC50 [µM]
A549-ACE2 [1], 24 h	–	–	–	–	2.94
A549-ACE2 [1], 48 h	–	–	–	–	1.79
Caco-2 [11], 1 nM	–	–	99.3	–	–
Caco-2 [11], 10 nM	–	–	88.1	–	–
Caco-2 [11], 100 nM	–	–	107	–	–
Caco-2 [11], 1000 nM	–	–	83.7	–	–
Caco-2 [11], 10000 nM	–	–	10.1	–	–
Calu-3 [13], 1 nM	–	–	102	–	–
Calu-3 [13], 10 nM	–	–	108	–	–
Calu-3 [13], 100 nM	–	–	102	–	–
Calu-3 [13], 1000 nM	–	–	87.5	–	–
Calu-3 [13], 10000 nM	–	–	0.5	–	–
HepG2 [12], 1 nM	–	–	94.5	–	–
HepG2 [12], 10 nM	–	–	91.3	–	–
HepG2 [12], 100 nM	–	–	106	–	–
HepG2 [12], 1000 nM	–	–	71.4	–	–
HepG2 [12], 10000 nM	–	–	0.2	–	–
U2OS [14], 1 nM	–	–	97.7	–	–
U2OS [14], 10 nM	–	–	92.8	–	–
U2OS [14], 100 nM	–	–	97.3	–	–
U2OS [14], 1000 nM	–	–	86.2	–	–
U2OS [14], 10000 nM	–	–	5.7	–	–
Vero E6 [10], 1 nM	–	–	99.4	–	–
Vero E6 [10], 10 nM	–	–	101	–	–
Vero E6 [10], 100 nM	–	–	97.9	–	–
Vero E6 [10], 1000 nM	–	–	95.9	–	–
Vero E6 [10], 10000 nM	–	–	17	–	–
[3], 0.1 µM	–	104	–	–	–
[3], 0.3 µM	–	100	–	–	–
[3], 1 µM	–	97	–	–	–
[3], 3 µM	–	90	–	–	–
[4], 0.1 µM	110	–	–	–	–
[4], 0.3 µM	96	–	–	–	–
[4], 1 µM	65	–	–	–	–
[4], 3 µM	44	–	–	–	–
[15], 0.1 µM	–	–	–	0.01	–
[15], 0.3 µM	–	–	–	0.04	–
[15], 1 µM	–	–	–	0.56	–
[15], 3 µM	–	–	–	0.69	–

drug-induced phospholipidosis [%], A549-ACE2 [2]
Details	0.3 µM	0.833333 µM	3.33333 µM	6.66667 µM	10 µM	30 µM
24 h	9.71	10.9	62	78.4	87.3	66.3
48 h	12.5	7.38	84.3	87.6	93	69.7
72 h	11.3	5.24	83.1	–	–	–

Details	drug sensitivity score	relative viability EC50 [µM]
Caco-2 [6]	7.7	–
Caco-2 [20]	–	1.82
Calu-3 [8]	7.6	–
Calu-3 [18]	–	2.15
HepG2 [7]	9.7	–
HepG2 [17]	–	1.44
U2OS [9]	7.5	–
U2OS [19]	–	2.01
Vero E6 [5]	5.2	–
Vero E6 [16]	–	2.78

Cn1c(NC[C@@H](N)Cc2ccccc2)nc(-c2ccncc2)c(-c2ccc3ccccc3c2)c1=O [AMG-548]
Details	SARS-CoV-2 infection rate [%]	cell count [%]	cell viability [%]	morphology score	phospholipidosis EC50 [µM]
A549-ACE2 [1], 24 h	–	–	–	–	8.48
A549-ACE2 [1], 48 h	–	–	–	–	9.02
A549-ACE2 [1], 72 h	–	–	–	–	9.93
Caco-2 [11], 1 nM	–	–	96.8	–	–
Caco-2 [11], 10 nM	–	–	87.9	–	–
Caco-2 [11], 100 nM	–	–	102	–	–
Caco-2 [11], 1000 nM	–	–	89.5	–	–
Caco-2 [11], 10000 nM	–	–	69.9	–	–
HepG2 [12], 1 nM	–	–	106	–	–
HepG2 [12], 10 nM	–	–	108	–	–
HepG2 [12], 100 nM	–	–	101	–	–
HepG2 [12], 1000 nM	–	–	104	–	–
HepG2 [12], 10000 nM	–	–	72.4	–	–
U2OS [14], 1 nM	–	–	101	–	–
U2OS [14], 10 nM	–	–	94.2	–	–
U2OS [14], 100 nM	–	–	93.1	–	–
U2OS [14], 1000 nM	–	–	85.3	–	–
U2OS [14], 10000 nM	–	–	76.3	–	–
Vero E6 [10], 1 nM	–	–	106	–	–
Vero E6 [10], 10 nM	–	–	104	–	–
Vero E6 [10], 100 nM	–	–	99.2	–	–
Vero E6 [10], 1000 nM	–	–	89	–	–
Vero E6 [10], 10000 nM	–	–	97.2	–	–
[3], 0.3 µM	–	93	–	–	–
[3], 3 µM	–	110	–	–	–
[3], 10 µM	–	123	–	–	–
[3], 30 µM	–	106	–	–	–
[4], 0.3 µM	99	–	–	–	–
[4], 3 µM	71	–	–	–	–
[4], 10 µM	27	–	–	–	–
[4], 30 µM	11	–	–	–	–
[15], 0.3 µM	–	–	–	-0.14	–
[15], 3 µM	–	–	–	0.22	–
[15], 10 µM	–	–	–	0.82	–
[15], 30 µM	–	–	–	0.53	–

drug-induced phospholipidosis [%], A549-ACE2 [2]
Details	0.3 µM	0.833333 µM	3.33333 µM	6.66667 µM	10 µM	30 µM
24 h	-3.67	-2.85	6.77	44.3	80.5	129
48 h	-2.54	-2.01	5.31	39.9	73.3	125
72 h	-1.85	-0.623	7.44	37.6	80.8	151

Details	drug sensitivity score	relative viability EC50 [µM]
Caco-2 [6]	2.8	–
HepG2 [7]	0.9	–
U2OS [9]	2.3	–
U2OS [19]	–	> 10
Vero E6 [5]	0.3	–
Vero E6 [16]	–	> 10

N#Cc1ccc(N2N=C3c4ccc(C(=O)O)cc4CC[C@@H]3[C@@H]2C2CCCC2)cc1Cl
Details	SARS-CoV-2 infection rate, [4] [%]	cell count, [3] [%]	cell viability, Caco-2 [11] [%]	cell viability, Calu-3 [13] [%]	cell viability, HepG2 [12] [%]	cell viability, U2OS [14] [%]	cell viability, Vero E6 [10] [%]	morphology score, [15]
1 nM	–	–	92	101	93.1	97.1	96	–
10 nM	–	–	98.1	97.6	96.3	96.4	106	–
100 nM	–	–	105	95	114	99.4	90	–
0.3 µM	101	100	–	–	–	–	–	-0.02
1000 nM	–	–	95.1	92.5	95.5	97.7	98.5	–
3 µM	99	107	–	–	–	–	–	0.24
10 µM	98	96	–	–	–	–	–	-0.01
10000 nM	–	–	101	106	103	99.6	117	–
30 µM	75	97	–	–	–	–	–	0.57

Details	drug sensitivity score	relative viability EC50 [µM]
Caco-2 [6]	0	–
Caco-2 [20]	–	> 10
Calu-3 [8]	0	–
Calu-3 [18]	–	> 10
HepG2 [7]	0	–
HepG2 [17]	–	> 10
U2OS [9]	0	–
U2OS [19]	–	> 10
Vero E6 [5]	0	–
Vero E6 [16]	–	> 10

Cc1nnc2n1-c1sc(CCC(=O)N3CCOCC3)cc1C(c1ccccc1Cl)=NC2 [apafant]
drug-induced phospholipidosis [%], A549-ACE2 [2]
Details	0.3 µM	0.833333 µM	3.33333 µM	6.66667 µM	10 µM	30 µM
24 h	-0.44	-1.14	-1.04	-0.5	-1.44	-0.48
48 h	0.52	-1.18	0.04	0.92	-0.18	0.6
72 h	2.35	-0.663	0.399	-0.364	0.448	3.95

Details	SARS-CoV-2 infection rate, [4] [%]	cell count, [3] [%]	cell viability, Caco-2 [11] [%]	cell viability, Calu-3 [13] [%]	cell viability, HepG2 [12] [%]	cell viability, Vero E6 [10] [%]	morphology score, [15]
1 nM	–	–	108	94.3	105	111	–
10 nM	–	–	107	94.7	93.7	105	–
100 nM	–	–	101	95.3	108	104	–
0.3 µM	101	101	–	–	–	–	-0.03
1000 nM	–	–	104	105	92.3	105	–
3 µM	83	102	–	–	–	–	0.43
10 µM	102	100	–	–	–	–	-0.18
10000 nM	–	–	94	87.1	102	99.7	–
30 µM	93	103	–	–	–	–	0.24

Details	drug sensitivity score	relative viability EC50 [µM]
Caco-2 [6]	0	–
Caco-2 [20]	–	> 10
Calu-3 [8]	0	–
Calu-3 [18]	–	> 10
HepG2 [7]	0	–
HepG2 [17]	–	> 10
Vero E6 [5]	0	–
Vero E6 [16]	–	> 10

From the supplement of paper PMC13380429
